Measured values taken from patent US12570613B2, “Imidazoquinoline or benzoindazolone compound and intermediate for preparing same” (LMITO THERAPEUTICS INC., priority 2020, dated 2026).

molecular target: NQO1 protein (Homo sapiens, UniProt P15559); assay: In vitro NQO1 enzyme activity assay (cytochrome C reduction, absorbance at 550 nm); assay type: biochemical; settings: NQO1 2 ng, 50 nM Compound (Table 2)
Experimental: In order to evaluate the activity of the synthesized compound in NQO1, the experiments were performed as follows:
The synthesized compound was dissolved in DMSO to make a 10 mM stock solution, which was further diluted with DMSO to 250 μM so as to prepare a working solution. For experimental groups, the working solution of the compound was added to an enzyme reaction solution in which 50 μL of 1.54 mM Cytochrome C solution was added to 900 μL of 50 mM Tris-HCl (pH7.5) containing 0.14% BSA. For negative control groups, DMSO not containing the compound of the invention was added to the enzyme reaction solution as above. For each experimental and control group, 20 μL of 100 ng/mL NQO1 protein was added, and then 10 μL of 20 mM NADH was added to bring up the total volume to 1 mL. The change of absorbance was measured at 550 nm for 10 minutes using 1 mL cuvette. The kinetics of reaction was measured by the increase of absorbance as the cytochrome C was reduced at 550 nm over 10 minutes. The activity of NQO1 was measured by the amount of cytochrome C that is being reduced (nmol cytochrome C that was reduced/min/ug NQO1 protein). • Absorption coefficient of Cytochrome C: 21.1 (μmol/mL)^−1cm^−1 • BSA: Bovine Serum Albumin • […]: Tris(hydroxymethyl)aminomethane hydrochloride (buffer solution) • Equipment=Cary 100 UV-Vis Spectrophotometer • The results are shown in Tables 1 to 8.

Sequence of NQO1 protein (P15559 whole entry, species assumed): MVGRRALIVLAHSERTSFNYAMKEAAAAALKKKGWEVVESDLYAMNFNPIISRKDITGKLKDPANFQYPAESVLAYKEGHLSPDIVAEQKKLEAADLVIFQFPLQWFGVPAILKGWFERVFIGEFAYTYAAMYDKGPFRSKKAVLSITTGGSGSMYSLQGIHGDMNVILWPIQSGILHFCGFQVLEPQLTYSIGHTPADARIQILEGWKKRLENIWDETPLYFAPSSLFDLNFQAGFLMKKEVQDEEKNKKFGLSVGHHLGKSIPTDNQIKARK

**Q.** Which “NQO1 activity assay Cytochrome C reduced/min/μg NQO1 protein” value does the source give for `Cc1nn(Cc2ccccc2)c2c1C(=O)C(=O)c1ccccc1-2` [Compound 63, 1-Benzyl-3-methyl-1H-benzo[g]indazol-4,5-dione] here?
**A.** 1567 nmol cytochrome C that was reduced/min/ug NQO1 protein

**Q.** With `Cc1nn(CCc2ccccc2)c2c1C(=O)C(=O)c1ccccc1-2` [Compound 64, 3-Methyl-1-phenethyl-1H-benzo[g]indazol-4,5-dione] as the compound, how does the “NQO1 activity assay Cytochrome C reduced/min/μg NQO1 protein” value read?
**A.** 2081 nmol cytochrome C that was reduced/min/ug NQO1 protein

same assay, conditions: NQO1 2 ng, 50 nM Compound (Table 4)

**Q.** For `Cc1nn(CCc2ccc(F)cc2)c2c1C(=O)C(=O)c1ccccc1-2` [Compound 65, 1-(4-Fluorophenethyl)-3-methyl-1H-benzo[g]indazol-4,5-dione], which “NQO1 activity assay Cytochrome C reduced/min/μg NQO1 protein” value is on record?
**A.** 3714 nmol cytochrome C that was reduced/min/ug NQO1 protein

**Q.** `Cc1c2c(nn1CCc1ccc(F)cc1)-c1ccccc1C(=O)C2=O` [Compound 66, 2-(4-Fluorophenethyl)-3-methyl-2H-benzo[g]indazol-4,5-dione] was tested. Which “NQO1 activity assay Cytochrome C reduced/min/μg NQO1 protein” value did it give?
**A.** 3001 nmol cytochrome C that was reduced/min/ug NQO1 protein

same assay, conditions: NQO1 2 ng, 50 nM Compound (Table 7)

**Q.** How did the “NQO1 activity assay Cytochrome C reduced/min/μg NQO1 protein” value turn out when `Cc1c2c(nn1S(=O)(=O)c1ccc([N+](=O)[O-])cc1)-c1ccccc1C(=O)C2=O` [Compound 56, 3-Methyl-2-(4-nitrophenylsulfonyl)-2H-benzo[g]indazol-4,5-dione] was run?
**A.** 1839 nmol cytochrome C that was reduced/min/ug NQO1 protein

**Q.** With `Cc1c2c(nn1S(=O)(=O)c1ccc(C(F)(F)F)cc1)-c1ccccc1C(=O)C2=O` [Compound 57, 3-Methyl-2-(4-(trifluoromethyl)phenylsulfonyl)-2H-benzo[g]indazol-4,5-dione] as the compound, how does the “NQO1 activity assay Cytochrome C reduced/min/μg NQO1 protein” value read?
**A.** 1868 nmol cytochrome C that was reduced/min/ug NQO1 protein

same assay, conditions: NQO1 2 ng, 50 nM Compound (Table 8)

**Q.** For `Cc1c2c(nn1S(=O)(=O)c1ccc(F)c(F)c1)-c1ccccc1C(=O)C2=O` [Compound 58, 2-(3,4-Difluorophenylsulfonyl)-3-methyl-2H-benzo[g]indazol-4,5-dione], which “NQO1 activity assay Cytochrome C reduced/min/μg NQO1 protein” value is on record?
**A.** 1913 nmol cytochrome C that was reduced/min/ug NQO1 protein

**Q.** Which “NQO1 activity assay Cytochrome C reduced/min/μg NQO1 protein” value does the source give for `Cc1c2c(nn1S(=O)(=O)c1ccc(F)cc1F)-c1ccccc1C(=O)C2=O` [Compound 59, 2-(2,4-Difluorophenylsulfonyl)-3-methyl-2H-benzo[g]indazol-4,5-dione] here?
**A.** 1923 nmol cytochrome C that was reduced/min/ug NQO1 protein

**Q.** How did the “NQO1 activity assay Cytochrome C reduced/min/μg NQO1 protein” value turn out when `Cc1c2c(nn1S(=O)(=O)c1cccc3cccnc13)-c1ccccc1C(=O)C2=O` [Compound 60, 3-Methyl-2-(quinolin-8-ylsulfonyl)-2H-benzo[g]indazol-4,5-dione] was run?
**A.** 2692 nmol cytochrome C that was reduced/min/ug NQO1 protein

**Q.** For `Cc1c2c(nn1S(=O)(=O)c1nccn1C)-c1ccccc1C(=O)C2=O` [Compound 61, 3-Methyl-2-(1-methyl-1H-imidazol-2-ylsulfonyl)-2H-benzo[g]indazol-4,5-dione], which “NQO1 activity assay Cytochrome C reduced/min/μg NQO1 protein” value is on record?
**A.** 2289 nmol cytochrome C that was reduced/min/ug NQO1 protein

**Q.** Which “NQO1 activity assay Cytochrome C reduced/min/μg NQO1 protein” value does the source give for `Cc1c2c(nn1S(=O)(=O)N1CCOCC1)-c1ccccc1C(=O)C2=O` [Compound 62, 3-Methyl-2-(morpholinosulfonyl)-2H-benzo[g]indazol-4,5-dione] here?
**A.** 1916 nmol cytochrome C that was reduced/min/ug NQO1 protein

**Q.** How did the “NQO1 activity assay Cytochrome C reduced/min/μg NQO1 protein” value turn out when `Cc1nn(CCCc2ccccc2)c2c1C(=O)C(=O)c1ccccc1-2` [Compound 67, 3-Methyl-1-(3-phenylpropyl)-1H-benzo[g]indazol-4,5-dione] was run?
**A.** 1836 nmol cytochrome C that was reduced/min/ug NQO1 protein

**Q.** With `Cc1ccc(CCn2nc(C)c3c2-c2ccccc2C(=O)C3=O)cc1` [Compound 68, 3-Methyl-1-(4-methylphenethyl)-1H-benzo[g]indazol-4,5-dione] as the compound, how does the “NQO1 activity assay Cytochrome C reduced/min/μg NQO1 protein” value read?
**A.** 1865 nmol cytochrome C that was reduced/min/ug NQO1 protein

**Q.** How did the “NQO1 activity assay Cytochrome C reduced/min/μg NQO1 protein” value turn out when `Cc1ccc(CCn2nc3c(c2C)C(=O)C(=O)c2ccccc2-3)cc1` [Compound 69, 3-Methyl-2-(4-methylphenethyl)-2H-benzo[g]indazol-4,5-dione] was run?
**A.** 2460 nmol cytochrome C that was reduced/min/ug NQO1 protein

**Q.** `Cc1c2c(nn1CCc1ccccc1F)-c1ccccc1C(=O)C2=O` [Compound 70, 2-(2-Fluorophenethyl)-3-methyl-2H-benzo[g]indazol-4,5-dione] was tested. Which “NQO1 activity assay Cytochrome C reduced/min/μg NQO1 protein” value did it give?
**A.** 1611 nmol cytochrome C that was reduced/min/ug NQO1 protein
